Tests used:
[1] = test system: allogeneic heart transplants; experiment: Histology, immunohistochemistry (ED1) and rejection score of allogeneic heart transplants 3 days after transplantation; type: in vivo, rat
Method: Transplanted hearts were removed under deep anesthesia, quickly blotted free of blood, weighed, and then processed as needed for histology and immunohistochemistry. The organs were cut into 1-mm slices and either immersion-fixed in 4% formaldehyde in phosphate buffered saline (PBS) pH 7.35, (PBS: 99 mM NaH2PO4, 108 mM NaH2PO4 and 248 mM NaCl) for 24 h or fixed in methacarn for 8 h and embedded in paraffin. Light microscopy was performed on 3 μm sections stained by periodic acid-Schiff or Goldner-Elastica. Light microscopy was performed on allogeneic heart transplants 3 days after transplantation.
The ED1 monoclonal antibody (Serotec/Camon) was used on methacarn fixed paraffin embedded tissue (3 μm) to stain for rat monocytes/macrophage cells. An alkaline phosphatase anti-alkaline phosphatase detection system was used for visualization (Dako). Controls that omit the first or second antibody for each section were performed for negative staining. […]
Mild acute rejection (score: 1) was characterized by a sparse interstitial mononuclear infiltrate often accentuated in perivascular spaces. […] The rejection score was calculated for every tissue block and an average score was calculated from the different blocks for every transplanted heart as rejection processes tended to be focal.

[2] = test system: recipient Lewis rats given donor ACI rat grafts; experiment: Heterotopic heart transplant rejection model (ACI donor, Lewis recipient); type: in vivo; settings: cyclosporin A only
Excerpt: In this assay an increase in allograft survival time corresponds to a decrease in heart transplant rejection in the recipient Lewis rats given donor ACI rat grafts.
Adult male, specific pathogen-free ACI (RT1a) and Lewis (RT1l) rats (Charles River, Boston, Mass.) weighing 200 to 250 g were used as donors and recipients, respectively, in these studies. Vascularized cardiac allografts were heterotopically transplanted into the abdomen of recipient rats using a modification (Nisco, S. et al., (1994), supra) of the technique of Ono and Lindsay (Ono, K. et al., (1969), supra). […] Abdominal allografts were palpated on a daily basis to assess graft function, and rejection was deemed complete when palpable ventricular contractions ceased.
The transplanted hearts were evaluated daily for signs of rejection over the course of the study.

cyclosporin A was tested, and the “immunohistology for ED1-positive monocytes/macrophages in allogeneic heart transplants” value [1] was “inflammatory cell infiltrate was focal and was composed primarily of ED-1 positive cells”, the “mean allograft survival time” value ([2]; 2.5 mg/kg by gavage once per day for duration of study) was 7.3±0.5 days and the “mean allograft survival time” value ([2]; 10 mg/kg by gavage once per day for four days) was 12.9±0.7 days.
